Test results from patent publication US12522614B2, “Topical phosphoinositide 3-kinase inhibitors” (VENTHERA, INC., priority 2019, dated 2026).

How the values were obtained:
[1] = Stability study of Compound 1.002 as API (HPLC assay); assay type: physicochemical
Excerpt: The stability of three lots of Compound 1.002 as Active Pharmaceutical Ingredient (API) was studied for a period of 12 months.

[2] = Viscosity of topical formulation as prepared; assay type: physicochemical; details: gel formulation of Example 8 (Table 2)
Description: The liquid excipients, i.e. DMSO, oleic acid, Transcutol® P, and dipropylene glycol were mixed in a 20-mL vial, by vortex agitation. The active ingredient, a compound of formula (I), for example Compound 1.002 was then added, and the vial content was sonicated for 10 minutes to dissolve the compound. […] Hydroxylpropyl cellulose (HPC) was added, and the vial was agitated by vortex for another ten minutes to obtain the gel formulation. The viscosity of the clear gel was measured to be in a range of about 7,000 to 10,000 centipoise (cp).
A solution formulation was prepared, similar to the gel formulations as described in Example 8, without a thickening agent. The viscosity of the solution was 13.4 cp and it can be used as a topical spray or lotion.

[3] = In vitro skin permeation study, mouse skin vs. human skin; assay type: in vitro ADME; details: Example 8 gel
Description: The gel formulation of Example 8 was used to determine the skin permeation through human and mouse skin. It is important to understand the permeation difference between the two types of skin, because mouse skin is used extensively in toxicology studies as well as in early in vivo studies. The skin permeation study was performed in accordance with the method as described in Example 9.

Compound 1.002 Purity by a HPLC Assay Method ([1]; Lot-1, 25° C./60% RH, 0 months): 99.5%
Compound 1.002 Purity by a HPLC Assay Method ([1]; Lot-1, 25° C./60% RH, 3 months): 99.4%
Compound 1.002 Purity by a HPLC Assay Method ([1]; Lot-1, 25° C./60% RH, 6 months): 99.6%
Compound 1.002 Purity by a HPLC Assay Method ([1]; Lot-1, 25° C./60% RH, 9 months): 99.8%
Compound 1.002 Purity by a HPLC Assay Method ([1]; Lot-1, 25° C./60% RH, 12 months): 99.9%
Compound 1.002 Purity by a HPLC Assay Method ([1]; Lot-1, 40° C./75% RH, 0 months): 99.5%
Compound 1.002 Purity by a HPLC Assay Method ([1]; Lot-1, 40° C./75% RH, 3 months): 99.2%
Compound 1.002 Purity by a HPLC Assay Method ([1]; Lot-1, 40° C./75% RH, 6 months): 99.5%
Compound 1.002 Purity by a HPLC Assay Method ([1]; Lot-2, 40° C./75% RH, 0 months): 99.4%
Compound 1.002 Purity by a HPLC Assay Method ([1]; Lot-2, 40° C./75% RH, 1 month): 100.0%
Compound 1.002 Purity by a HPLC Assay Method ([1]; Lot-2, 40° C./75% RH, 2 months): 99.3%
Compound 1.002 Purity by a HPLC Assay Method ([1]; Lot-2, 40° C./75% RH, 3 months): 97.9%
Compound 1.002 Purity by a HPLC Assay Method ([1]; Lot-2, 40° C./75% RH, 6 months): 100.0%
Compound 1.002 Purity by a HPLC Assay Method ([1]; Lot-3, 40° C./75% RH, 0 months): 100.0%
Compound 1.002 Purity by a HPLC Assay Method ([1]; Lot-3, 40° C./75% RH, 1 month): 100.0%
Compound 1.002 Purity by a HPLC Assay Method ([1]; Lot-3, 40° C./75% RH, 2 months): 100.0%
Compound 1.002 Purity by a HPLC Assay Method ([1]; Lot-3, 40° C./75% RH, 3 months): 98.9%
Compound 1.002 Purity by a HPLC Assay Method ([1]; Lot-3, 40° C./75% RH, 6 months): 100.0%
Viscosity of the clear gel [2]: 7,000 to 10,000 centipoise (cp)
Permeation through mouse skin compared with human skin ([3]; 48 hours, FIG. 5): approximately three times higher
Metabolism of Compound 1.002 to MTPP in human and mouse skin ([3]; both skin types): proceeded equally well
SMILES: CC(=O)Oc1cccc(-c2nc(N3CCOCC3)c3sccc3n2)c1 [Compound 1.002, 3-(4-Morpholinothieno[3,2-d]pyrimidin-2-yl)phenyl Acetate]
